These are literature values, as cited in patent US20080014285A1, “METHOD OF TREATING NEURODEGENERATIVE BRAIN DISEASE WITH A COMPOSITE COMPRISING […] NANOPARTICLES AND A […] COMPOUND” (priority 2006, published 2008).

Bounds are passed on as bounds.

Data set [1] concerns glutamate-induced nitric oxide related neurotoxicity.
The conditions of data set [2]: peripheral administration, hypermagnesemia.
For data set [3] the following is noted: systemic administration; patients with intracranial hypertension.
For another data set, the system named is traumatic brain injury. The following applies: administration no more than 12 hours post-trauma.
A further data set has as its system dopaminergic neurons. The settings on record: low dose; PD.

Take `CN(c1nc2ccccc2s1)C1CCN(C[C@H](O)COc2ccc(F)c(F)c2)CC1` [lubeluzole]: the “glutamate-induced nitric oxide related neurotoxicity” value in data set [1] is recorded as “inhibits”. Turning to `O=S(=O)([O-])[O-].[Mg+2]` [magnesium sulfate], the “total and ionized CSF [Mg]” value in data set [2] is on record as “only marginal increases”. Moreover, in data set [3], the “CSF ionized magnesium concentration” value is “failed to increase” and the “increase of plasma magnesium levels” value is over 50%. Turning to `[Mg+2]` [magnesium], in the data set with traumatic brain injury, the brain magnesium homeostasis entry was “restores brain magnesium homeostasis”; the “motor and cognitive outcome” value is “profoundly improves both motor and cognitive outcome”. In the case of VEGF, in the data set on dopaminergic neurons, the “neuroprotection of dopaminergic neurons” value is “neuroprotective”.
